Activity calls are given as the source filed them.
Key:
[1] = molecular target: T1, Heat shock factor protein 1 (Mus musculus, UniProt P38532); assay: enhancement of HSF1-driven luciferase signal – cell-based, NIH3T3, luminescence, dose retest, confirmation (AID 435004); type: functional;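 further: stress induced by proteasome inhibitor MG132 added 30 min after compound; luciferase reporter driven by HSF1 response element in NIH3T3 cells; actives raise luminescence as potentiators of the MG132 stress response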
T1 sequence (P38532 whole entry): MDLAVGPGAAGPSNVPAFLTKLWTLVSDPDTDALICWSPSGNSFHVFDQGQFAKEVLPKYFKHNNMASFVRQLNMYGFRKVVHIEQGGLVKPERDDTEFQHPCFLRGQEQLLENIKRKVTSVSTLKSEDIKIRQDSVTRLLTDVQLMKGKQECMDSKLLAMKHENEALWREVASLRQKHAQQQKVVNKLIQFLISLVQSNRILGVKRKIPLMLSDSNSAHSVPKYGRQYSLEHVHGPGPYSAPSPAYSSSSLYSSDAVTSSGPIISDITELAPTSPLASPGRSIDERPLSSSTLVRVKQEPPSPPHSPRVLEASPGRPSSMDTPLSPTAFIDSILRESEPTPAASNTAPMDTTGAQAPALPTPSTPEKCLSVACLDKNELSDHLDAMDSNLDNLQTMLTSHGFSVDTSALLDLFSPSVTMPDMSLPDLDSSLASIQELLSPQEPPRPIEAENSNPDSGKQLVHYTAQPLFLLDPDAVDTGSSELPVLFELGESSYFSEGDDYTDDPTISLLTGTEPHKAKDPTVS

[2] = molecular target: Sphingosine 1-phosphate receptor 2 (Homo sapiens, UniProt O95136); assay: Dose Response Cell Based Assay for Antagonists of the S1P2 Receptor. [Related pubchem assays: 856, 736 ]; type: functional
Beta-galactosidase = Beta-galactosidase (Escherichia coli, UniProt Q8VNN2); type: functional
[3] = molecular target: Heat shock protein HSP 90-alpha (Homo sapiens, UniProt P07900); type: functional, organism-based
[4] = molecular target: T2, Kappa-type opioid receptor (Homo sapiens, UniProt P41145); type: functional
[5] = molecular target: T2, Kappa-type opioid receptor; type: functional; remark: listed apart in the source
[6] = molecular target: Induced myeloid leukemia cell differentiation protein Mcl-1 (Homo sapiens, UniProt Q07820); type: functional
SUMO-activating enzyme [7] = molecular target: T3, SUMO-activating enzyme (Homo sapiens, UniProt Q9UBT2); assay: blockers of SAE1/SAE2–UBC9 SUMO transfer – biochemical, HTRF, uHTS, primary screen (AID 2006); type: protein-complex assay
SUMO-activating enzyme [8] = molecular target: T3, SUMO-activating enzyme; assay: blockers of UBC9-mediated SUMO conjugation – biochemical, AlphaScreen, SUMOylation inhibitor project, confirmation (AID 2018); type: functional
Protein Rev = Protein Rev (Human immunodeficiency virus type 1 group M subtype B (isolate HXB2)(HIV-1), UniProt P04618); assay: blockers of HIV Rev/RRE RNA complex – biochemical, fluorescence polarization, HIV-1, dose response (AID 434976); design: species or system Human immunodeficiency virus 1
[9] = molecular target: T4, Endoribonuclease toxin MazF (Escherichia coli K-12, UniProt P0AE70); assay: activation of MazEF endoribonuclease cleavage – biochemical, fluorescence, single-stranded RNA substrate, uHTS hits, dose response (AID 588481); type: functional
T4 sequence (P0AE70 whole entry): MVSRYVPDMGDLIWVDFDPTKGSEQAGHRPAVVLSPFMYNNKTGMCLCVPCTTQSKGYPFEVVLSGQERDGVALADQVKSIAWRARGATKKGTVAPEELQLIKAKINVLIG

[10] = molecular target: T4, Endoribonuclease toxin MazF; assay: substrate-only fluorescence increase artefacts – biochemical, single-stranded RNase substrate, counter-screen for MazEF activator project, dose response (AID 588502); type: functional
[11] = molecular target: Female germline-specific tumor suppressor gld-1 (Caenorhabditis elegans, UniProt Q17339); assay: blockers of GLD-1/TGE RNA complex formation – biochemical, fluorescence polarization, C. elegans, dose response (AID 2802);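 further: fluorescence polarization of labeled TGE RNA bound by purified gld-1 protein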
Sequence of Female germline-specific tumor suppressor gld-1 (Q17339 whole entry): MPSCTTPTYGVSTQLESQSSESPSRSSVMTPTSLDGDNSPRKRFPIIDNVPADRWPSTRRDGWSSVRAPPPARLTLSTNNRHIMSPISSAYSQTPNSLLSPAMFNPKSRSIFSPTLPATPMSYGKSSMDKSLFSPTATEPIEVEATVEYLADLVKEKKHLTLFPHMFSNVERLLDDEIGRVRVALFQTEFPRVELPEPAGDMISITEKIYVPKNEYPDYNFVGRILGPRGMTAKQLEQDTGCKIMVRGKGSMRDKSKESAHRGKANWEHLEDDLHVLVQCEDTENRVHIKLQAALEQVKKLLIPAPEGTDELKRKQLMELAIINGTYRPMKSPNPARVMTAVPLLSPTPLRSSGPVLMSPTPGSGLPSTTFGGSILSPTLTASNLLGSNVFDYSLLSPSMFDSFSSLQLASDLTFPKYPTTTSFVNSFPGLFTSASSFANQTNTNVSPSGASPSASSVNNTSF

T3 sequence (Q9UBE0 whole entry): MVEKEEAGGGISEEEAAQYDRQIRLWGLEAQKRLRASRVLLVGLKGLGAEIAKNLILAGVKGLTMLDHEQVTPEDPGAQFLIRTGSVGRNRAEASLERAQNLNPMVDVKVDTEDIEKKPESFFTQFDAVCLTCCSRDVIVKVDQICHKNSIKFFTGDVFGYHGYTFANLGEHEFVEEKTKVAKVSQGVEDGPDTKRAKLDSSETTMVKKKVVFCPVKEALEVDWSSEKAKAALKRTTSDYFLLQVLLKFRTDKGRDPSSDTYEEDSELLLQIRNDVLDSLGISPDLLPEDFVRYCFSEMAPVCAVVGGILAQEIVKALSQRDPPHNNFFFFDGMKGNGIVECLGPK
T3 sequence (Q9UBT2 whole entry): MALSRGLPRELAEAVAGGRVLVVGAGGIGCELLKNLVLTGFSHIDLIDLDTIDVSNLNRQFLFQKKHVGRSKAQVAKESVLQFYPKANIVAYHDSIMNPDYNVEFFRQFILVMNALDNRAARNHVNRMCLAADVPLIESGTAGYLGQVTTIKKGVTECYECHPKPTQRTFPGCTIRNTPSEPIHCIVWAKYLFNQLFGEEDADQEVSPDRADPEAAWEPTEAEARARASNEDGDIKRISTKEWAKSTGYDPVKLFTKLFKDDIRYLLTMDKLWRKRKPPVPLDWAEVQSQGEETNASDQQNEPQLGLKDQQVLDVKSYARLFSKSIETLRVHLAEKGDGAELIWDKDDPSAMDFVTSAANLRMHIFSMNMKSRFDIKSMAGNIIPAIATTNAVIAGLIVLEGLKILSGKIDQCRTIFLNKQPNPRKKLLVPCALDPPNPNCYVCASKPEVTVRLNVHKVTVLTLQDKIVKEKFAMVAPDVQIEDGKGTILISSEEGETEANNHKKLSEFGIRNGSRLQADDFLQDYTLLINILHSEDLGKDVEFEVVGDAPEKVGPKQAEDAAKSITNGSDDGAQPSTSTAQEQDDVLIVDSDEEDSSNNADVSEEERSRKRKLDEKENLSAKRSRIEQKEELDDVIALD
T2 sequence (P41145 whole entry): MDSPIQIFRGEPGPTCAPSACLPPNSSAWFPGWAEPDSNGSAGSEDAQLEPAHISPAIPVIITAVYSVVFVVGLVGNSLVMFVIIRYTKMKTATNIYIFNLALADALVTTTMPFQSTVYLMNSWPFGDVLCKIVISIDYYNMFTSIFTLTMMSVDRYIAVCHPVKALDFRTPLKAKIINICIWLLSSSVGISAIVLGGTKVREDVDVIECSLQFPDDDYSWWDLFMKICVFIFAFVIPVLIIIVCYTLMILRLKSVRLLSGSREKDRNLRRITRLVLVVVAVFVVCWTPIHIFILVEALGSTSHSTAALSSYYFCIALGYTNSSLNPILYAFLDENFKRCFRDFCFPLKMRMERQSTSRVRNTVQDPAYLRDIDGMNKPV
Sequence of Beta-galactosidase (Q8VNN2 whole entry): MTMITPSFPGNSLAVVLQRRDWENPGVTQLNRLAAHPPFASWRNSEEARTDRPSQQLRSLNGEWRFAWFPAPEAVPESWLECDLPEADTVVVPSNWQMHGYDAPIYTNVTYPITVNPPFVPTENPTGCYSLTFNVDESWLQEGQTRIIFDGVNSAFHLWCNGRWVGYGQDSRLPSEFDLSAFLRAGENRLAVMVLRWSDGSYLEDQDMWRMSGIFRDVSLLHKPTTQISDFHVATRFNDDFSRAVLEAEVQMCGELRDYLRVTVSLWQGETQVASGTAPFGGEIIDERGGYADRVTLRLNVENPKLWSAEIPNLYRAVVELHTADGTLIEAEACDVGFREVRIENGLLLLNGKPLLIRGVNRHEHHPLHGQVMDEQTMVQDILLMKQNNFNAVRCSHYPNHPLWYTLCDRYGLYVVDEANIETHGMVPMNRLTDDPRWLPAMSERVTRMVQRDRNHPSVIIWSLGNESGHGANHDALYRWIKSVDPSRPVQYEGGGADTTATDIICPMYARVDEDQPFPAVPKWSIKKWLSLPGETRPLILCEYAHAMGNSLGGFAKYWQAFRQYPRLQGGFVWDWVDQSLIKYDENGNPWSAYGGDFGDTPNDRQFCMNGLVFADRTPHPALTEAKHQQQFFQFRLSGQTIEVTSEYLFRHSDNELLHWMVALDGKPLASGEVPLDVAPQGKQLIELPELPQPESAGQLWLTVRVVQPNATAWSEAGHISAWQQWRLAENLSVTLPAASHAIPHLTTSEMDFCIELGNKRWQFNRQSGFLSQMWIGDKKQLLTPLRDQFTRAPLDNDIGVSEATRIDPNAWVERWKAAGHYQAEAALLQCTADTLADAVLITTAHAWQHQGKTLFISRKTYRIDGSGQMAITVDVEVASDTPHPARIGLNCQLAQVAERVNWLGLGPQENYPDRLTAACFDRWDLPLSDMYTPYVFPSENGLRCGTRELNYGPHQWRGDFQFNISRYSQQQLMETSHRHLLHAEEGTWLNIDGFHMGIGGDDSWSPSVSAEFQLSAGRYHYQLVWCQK
Sequence of Protein Rev (P04618 whole entry): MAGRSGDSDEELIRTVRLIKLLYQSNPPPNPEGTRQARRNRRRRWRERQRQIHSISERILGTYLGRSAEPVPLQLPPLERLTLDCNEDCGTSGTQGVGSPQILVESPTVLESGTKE
Sequence of Sphingosine 1-phosphate receptor 2 (O95136 whole entry): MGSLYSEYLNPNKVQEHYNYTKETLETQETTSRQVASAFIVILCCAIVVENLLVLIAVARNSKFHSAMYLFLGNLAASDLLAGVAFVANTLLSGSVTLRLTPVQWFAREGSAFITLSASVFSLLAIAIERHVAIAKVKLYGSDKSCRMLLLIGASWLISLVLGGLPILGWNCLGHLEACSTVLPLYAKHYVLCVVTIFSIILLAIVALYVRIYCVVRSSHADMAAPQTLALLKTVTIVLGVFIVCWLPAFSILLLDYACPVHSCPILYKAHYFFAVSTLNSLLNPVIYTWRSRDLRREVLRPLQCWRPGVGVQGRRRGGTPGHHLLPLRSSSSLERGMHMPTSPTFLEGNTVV
Sequence of Induced myeloid leukemia cell differentiation protein Mcl-1 (Q07820 whole entry): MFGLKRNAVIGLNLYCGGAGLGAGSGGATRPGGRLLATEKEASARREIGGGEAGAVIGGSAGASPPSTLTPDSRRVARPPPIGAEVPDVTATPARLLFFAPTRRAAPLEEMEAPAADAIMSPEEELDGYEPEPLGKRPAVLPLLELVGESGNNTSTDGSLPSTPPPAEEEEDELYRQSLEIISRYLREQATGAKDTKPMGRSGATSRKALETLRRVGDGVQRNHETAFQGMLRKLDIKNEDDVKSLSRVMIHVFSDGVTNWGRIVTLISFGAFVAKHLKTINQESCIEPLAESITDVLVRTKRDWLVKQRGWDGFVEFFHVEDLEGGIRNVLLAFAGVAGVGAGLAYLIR

O=C(C#Cc1cccc([N+](=O)[O-])c1)c1ccccc1
EC50 [1]: 1.08 µM (inconclusive) | IC50 [2]: 3.69 µM (active) | EC50 (Beta-galactosidase): > 31.5 µM (inactive) | AC50 [3]: 0.592 µM (active) | IC50 [4]: 22.8 µM (inactive) | IC50 [5]: > 32 µM

Cc1cc(=O)oc2cc(OCc3ccc(C(=O)OCC(=O)Nc4ccc(N(C)C)cc4)cc3)ccc12
IC50 [6]: 6.17 µM (active) | IC50 (SUMO-activating enzyme [7]): 22.1 µM (active) | IC50 (SUMO-activating enzyme [8]): 36.3 µM (active)

COc1ccc(N2CCCC2)c(NC(=O)c2ccc(Br)o2)c1
IC50 (Protein Rev): > 75.4 µM (not active) | EC50 [9]: > 99 µM (inactive) | EC50 [10]: > 99 µM (inactive) | IC50 [11]: 21.3 µM (inactive)
